Reference: patent publication US20220249596A1, “PIC1 PEPTIDE COMPOSITIONS AND METHODS OF USE THEREOF FOR TREATMENT OF HYPOXIC ISCHEMIC ENCEPHALOPATHY” (REALTA HOLDINGS, LLC, priority 2019, published 2022)
No end group written: not given here.

What was measured:
[1] = Barnes maze, spatial learning and memory; assay type: in vivo, rat
Procedure: Spatial learning and memory were evaluated by measuring navigational ability of rats in a Barnes maze 8 weeks after initial injury. The Barnes maze tests memory across test sessions or trials and is more closely related to long-term memory. The test was performed using a Plexiglas maze 122 cm in diameter, with 20 equidistant holes (10.5 cm diameter) spaced every […], and centered 20 cm from the outer perimeter. An escape box (8 cm in depth) was placed under one of the holes. The position of the escape box was varied randomly from rat to rat, but kept constant for a given rat throughout testing. A floodlight was placed over the maze to serve as an aversive stimulus.
Prior to testing, the rats underwent habituation sessions once a day for 5 consecutive days. In each session, the rats were placed in a holding box in the middle of the maze and allowed to get acclimated for 60 seconds. The holding box was then lifted up from the rats so that the rats were allowed to explore. The test was over when either the rat found the burrowing hole and burrowed for 10 seconds or the 5-minute time limit was reached. […] On the 14th day after the habituation sessions, the rats were tested to evaluate memory retention. Latency to investigate any hole, escape latency, and number of errors during the test trials were analyzed by two-way ANOVA, followed by Bonferroni's post hoc comparison matrix. The same measurements recorded during the memory retention test were analyzed by Student's t-test. Significance was considered at p<0.05.

MPO (Myeloperoxidase) = assay: Myeloperoxidase expression in cortex (oxidant stress); assay type: in vivo, rat; details: 48 hours after injury, versus NT animals, P<0.01
Procedure: After blocking for one hour at room temperature, tissues were incubated with 1:300 goat anti-Iba1 (Abcam), 1:250 goat anti-GFAP (Abcam), 1:500 chicken anti-NeuN (Millipore, Billerica, Mass.), or 1:100 mouse anti-NeuN (Millipore) in host appropriate blocking serum overnight at 4° C. Primary antibodies were probed with 1:500 donkey anti-goat (Abcam), goat anti-chicken (Abcam), or goat anti-mouse (Abcam) AF 488 or 568 in appropriate blocking serum for one hour at room temperature. Tissues were blocked a second time with NGS for one hour at room temperature. Samples were then probed with 1:300 mouse anti-C1q (Abcam), 1:300 rabbit anti-C9, 1:50 rabbit anti-MPO (Abcam), 1:200 rabbit anti-TMEM (Novus Bio, Centennial, Colo.), 1:100 rabbit anti-C3aR (Bioss), 1:100 Mouse anti-C5aR (Hycult), or 1:200 chicken anti-C3/C3a (Abcam) in NGS overnight at 4° C. and then with 1:500 goat anti-mouse, rabbit, or chicken (Abcam) AF 488 or 568 in NGS for one hour at room temperature.
To examine the effect of PIC1 treatment on oxidant stress, expression of the enzyme myeloperoxidase (MPO) was measured in the cortex of the brain. MPO is an enzyme from neutrophils that damages invading and host cells alike. MPO is one of the markers of oxidative stress after ischemic injury and is responsible for generating reactive oxygen species (hypochlorous acid and hydrogen peroxide). […]

brain infarct after HIE = details: rat, in vivo, ip, 160 mg/kg
[2] = tested on: systemic complement activity; assay: Complement hemolytic assay (sensitized human erythrocytes) with plasma of injected neonatal rats; assay type: in vivo, rat
Procedure: Complement activity was assayed in plasma after i.p. injection of PIC1 in term-equivalent neonatal rats. At post-natal day 7 (P7; day of birth=P1), the rat brain is histologically similar to that of a 32- to 34-week gestation human fetus or newborn infant, i.e., cerebral cortical neuronal layering is complete, the germinal matrix is involuting, and white matter as yet has undergone little myelination. Hypoxic-ischemic brain damage in the 7-day-old rat pups is induced with unilateral common carotid artery ligation followed by systemic hypoxia produced by the inhalation of 8% oxygen/balance nitrogen, at constant temperature (37° C.) (Vanucci et al. 2005. Dev Neurosci, Vol. 27, pages 81-86).
Timed pregnant Wistar rats (Hilltop Lab Animals Inc., Scottdale, Pa.) were purchased at embryonic day 19, housed individually, and allowed to deliver spontaneously. Pups were randomized on the day of birth to control for the litter effect (10/litter). At P10-12 (term-equivalent), pups were randomly assigned to 4 different treatment groups: no intervention (control), normothermia (NT), hypothermia-treated vehicle controls (HT), and treatment (PIC1). NT and HT animals were injected with the vehicle used to suspend PIC1. Experimental animals underwent unilateral carotid ligation followed by exposure to hypoxia (8% O2/balanced nitrogen, Vannucci model) for 45 minutes. Pups in the HT group were placed in open jars in a temperature controlled chamber set to 28-30° C. to maintain a target rectal temperature of 31-32° C. for 6 hours, while pups in the control, NT, and PIC1 groups were kept in a separate chamber at 37° C. Pups in the PIC1 group were injected with 2 doses of PIC1 (160 mg/kg, i.p.), with the first dose at the time of carotid ligation, and the second dose four hours later. After intervention, pups were placed back with the dam, and harvested at different time points.
Cobra-venom factor (CVF) was injected i.p. into one group of animals to deplete complement activity in vivo 24 hours prior to carotid ligation. On the day of surgery, a group of animals was injected with 160 mg/kg of PIC1 i.p. at the time of carotid ligation. The animals were harvested at 0.5-48 hours after injection, and plasma was collected by cardiac puncture.
Human AB erythrocytes were derived from healthy human volunteers. The erythrocytes were sensitized as described in Bonaparte et al. using rat anti-human glycophorin A IgG (LifeSpan Biosciences, Inc., Seattle, Wash.). Sensitized cells (5×10^7), serum, and GVBS^++ (Veronal-buffered saline, 0.1% gelatin, 0.15 mM CaCl2, and 1.0 mM MgCl) were combined in a total volume of 375 μl , and incubated for 1 hour at 37° C. in borosilicate glass tubes. […] The tubes were centrifuged and the absorbance of the supernatants was measured in a spectrophotometer at 412 nm.

IALILEPICCQERAA-dPEG24 (cysteine pairing not given here) [PIC1]
Barnes maze: latency in finding the escape hole ([1]; 8 weeks after injury, versus NT and HT animals): significantly shorter
Barnes maze: seeking strategy ([1]; direct versus random or serial strategy): more likely to use a direct strategy
Barnes maze: errors in finding the escape hole ([1]; versus HT-treated animals): significantly fewer
Barnes maze: errors in finding the escape hole ([1]; versus NT animals, P=0.06, not statistically significant): trended towards fewer errors
decrease of MPO expression in brain (MPO (Myeloperoxidase)): 83%
decrease in brain infarct size (brain infarct after HIE): 68%
inhibition of systemic complement activation ([2]; 30 minutes after i.p. injection, 160 mg/kg, plasma): 70%
return of complement activity to baseline, time after injection ([2]; gradual return after i.p. injection, 160 mg/kg): ≤ 8 h
systemic complement inhibition at 0.5, 1, 2 and 4 hours after injection ([2]; versus untreated NT animals, P<0.05): significant systemic complement inhibition
complement activity at 8, 16 and 48 hours after injection ([2]; versus untreated controls): comparable to that of untreated controls
